From US8569511B2, “Substituted 3-(1H-benzo[d]imidazol-2-yl)-1H-indazole analogs as inhibitors of the PDK1 kinase” (University of Utah Research Foundation, priority 2011, dated 2013)
Like-named read-outs stand apart in the source and are kept apart here.

What was measured:
HCT-116 = assay: Cell viability assay, cancer cell line panel; type: cell-based; conditions: Homo sapiens, mutation KRAS, PIK3CA
PDK1 = PDK1 (Homo sapiens (Human), UniProt O15530); assay: PDK1 ATP Depletion Kinase Assay (Kinase-Glo luminescence); type: biochemical; conditions: PDKtide substrate, read-out: PDK1 Kinase assays (IC50, μM) Activity Assay
Description: Test compounds were diluted to desired concentrations in kinase reaction buffer and briefly incubated with human recombinant PDK1 kinase which is histidine-tagged (Invitrogen Corporation, Carlsbad, Calif.). The reaction was subsequently initiated by the addition of ATP and PDKtide substrate (Millipore Corporation, Billerica, Massachussetts). […] After an incubation of 60 minutes at room temperature, 10 μl of the Kinase-Glo reagent (Promega Corporation, Madison, Wis.) was added to each well and incubated for an additional 10 minutes. Luminescence was measured on an EnVision microplate reader (PerkinElmer). The amount of luminescence from each reaction is inversely correlated with PDK1 kinase activity. Percent inhibition and IC50 values can be calculated by comparing enzyme activity in drug-treated wells to the appropriate controls, e.g. vehicle control.
(§1) IC50 values are determined using GraphPad Prism 5 software. The data were entered as an X-Y plot into the software as percent inhibition for each concentration of the drug. The concentration values of the drug were log transformed and the nonlinear regression was carried out using the “sigmoidal dose-response (variable slope)” option within the GraphPad software to model the data and calculate IC50 values.

[1] = system: 82 cell lines representing more than 20 tumor types; assay: Screen of a further 82 cell lines (8-point serial dilution); type: cell-based
Text: In order to determine if there were additional cell lines that were profoundly sensitive to this compound, a further 82 cell lines were screened which represented more than 20 different tumor types of origin. […] Without wishing to bound by a particular theory, these three additional cell lines are all acute myeloid leukemic lines that have different activating mutations in oncogenes that have been associated with elevated PI3K activity. MV4-11 has the FLT3 internal tandem duplication (ITD) and Kasumi-1 has amplified and mutated c-kit as well as the AML-ETO gene fusion. […] All three lines have wild-type PTEN but have shown to express very low levels of PTEN protein, which makes them functionally deficient for PTEN.

VEGFR2 = VEGFR2 (Homo sapiens (Human), UniProt P35968); assay: Kinase profiling, fluorometric assays by Life Technologies; type: biochemical; conditions: profiling at 500 nM, FIG. 8
Description: (§2) The panel comprised 78 distinct protein kinases, and data are shown for a subset of 20 kineases (see FIG. 8). Kinase profiling was performed against a focus panel of kinases relevant to PDK1 signaling and other known oncogenic kinases. The activity profiling as performed at 500 nM and percent inhibition at that concentration was determined for each kinase shown.
(§3) The kinase specificity was measured using fluorometric assays performed by Life Technologies (Grand Island, N.Y.). Assay conditions vary for each kinase and are available from Life Technologies, Grand Island, NY. For example, the assay conditions for PDK1 are as follows. The 2×PDK1/Ser/Thr-07 mixture is prepared in 50 mM Tris pH 8.5, 0.01% BRIJ-35, 10 mM MgCl2, 1 mM EGTA, 0.02% NaN3. The final 10 μL Kinase Reaction consists of 7.36-38.7 ng PDK1 and 2 μM Ser/Thr 07. After the 1 hour kinase reaction incubation, 5 μL of a 1:32768 dilution of Development Reagent A is added.

PDGFRA = PDGFRA (Homo sapiens (Human), UniProt P16234); assay: as above; type: biochemical; conditions: profiling at 500 nM, FIG. 8
Description: as §2, §3

BT549 = assay: Cell viability assay, cancer cell line panel; type: cell-based; conditions: Homo sapiens, BT-549; mutation PTEN
MCF-7 = assay: Cell viability assay, cancer cell line panel; type: cell-based; conditions: Homo sapiens, MCF7; mutation PIK3CA
H1975 = assay: Cell viability assay, cancer cell line panel; type: cell-based; conditions: Homo sapiens, NCI-H1975; mutation PIK3CA
PC-3 = assay: Cell viability assay, cancer cell line panel; type: cell-based; conditions: Homo sapiens, mutation PTEN
HS578T cell line = assay: Cell viability after PTEN shRNA knockdown; type: cell-based; conditions: Homo sapiens, Hs-578T
Description: The lentiviral particles with PTEN shRNA or scrambled siRNA (ssi RNA) were purchased from Thermo Scientific. The cells were seeded in a 24-well plate and incubated overnight in RPMI full media. The media was removed and the cells were transfected with either siRNA or ssiRNA particles in serum/antibiotic free RPMI media. Six hours post-transduction, 1 ml of full media (serum plus penicillin/streptomycin) was added and the cells were incubated overnight. At 48 hours post-transduction fresh media with puromycin was added. The media was replaced with fresh puromycin containing media every 2 days. qPCR and western blot analysis was used to evaluate the level of PTEN knockdown.
(§4) AN3-CA (PTEN-deficient), RL95-2 (PTEN-deficient), and HEC-1A (PTEN-wild type) cells were plated in 45 μl of RPMI-1640 media supplemented with 10% FBS and 1% Pen/Strep at a density of 1000 cells per well in white 384-well plates. Cells were allowed to attach by incubation overnight at 37° C. and 5% CO2. Test compounds were diluted to 10× concentrations in RPMI-1640 media (containing 3% DMSO) and 5 μl 1 of these dilutions were added in triplicate to the appropriate wells containing the cells. The plates containing the drug-treated cells and appropriate controls were incubated for 96 hours. At the end of the incubation, 40 μl of ATP-lite (PerkinElmer, Inc., Waltham, Massachussetts) reagent were added to each well and luminescence signal was measured on an EnVision microplate reader.
In the figures, cell viability is shown as “Toxicity” and the cell viability assay was carried out as described above.

AN3-CA cells = assay: Cell viability assay (ATP-lite); type: cell-based
Description: as §4
Alternatively, AN3-CA, RL95-2, HEC-1A endometrial cancer cell lines were plated at a density of 2000 cells per well in a 96 well culture plate in 45 μl of cell culture media and incubated overnight. The following day, test compounds were added to the cells in 5 μl of serum-free media to generate final concentrations of 10, 3, 1, 0.3, 0.1, 0.03, 0.01, or 0.003 μM. Vehicle treated controls were also included and each condition was applied in quadruplicate. Following 96 hours of incubation, 35 μL of ATP-lite (PerkinElmer) reagent was added each well and allowed to react for 10 minutes. Plate was read on a Envision 2104 MultiLabel reader (PerkinElmer).
as §1

LNCap = assay: Cell viability assay, cancer cell line panel; type: cell-based; conditions: Homo sapiens, mutation PTEN
786-O = assay: Cell viability assay, cancer cell line panel; type: cell-based; conditions: Homo sapiens, 786-0; mutation PTEN
[2] = PTEN knockdown shRNA, read-out: IC50 for cell viability, PTEN knockdown shRNA cells
[3] = Homo sapiens, AN3-CA, AN3-CA (PTEN and PIK3R1 mutations), read-out: Cell Viability IC50 AN3-CA

Chain of PDK1 (O15530 whole entry): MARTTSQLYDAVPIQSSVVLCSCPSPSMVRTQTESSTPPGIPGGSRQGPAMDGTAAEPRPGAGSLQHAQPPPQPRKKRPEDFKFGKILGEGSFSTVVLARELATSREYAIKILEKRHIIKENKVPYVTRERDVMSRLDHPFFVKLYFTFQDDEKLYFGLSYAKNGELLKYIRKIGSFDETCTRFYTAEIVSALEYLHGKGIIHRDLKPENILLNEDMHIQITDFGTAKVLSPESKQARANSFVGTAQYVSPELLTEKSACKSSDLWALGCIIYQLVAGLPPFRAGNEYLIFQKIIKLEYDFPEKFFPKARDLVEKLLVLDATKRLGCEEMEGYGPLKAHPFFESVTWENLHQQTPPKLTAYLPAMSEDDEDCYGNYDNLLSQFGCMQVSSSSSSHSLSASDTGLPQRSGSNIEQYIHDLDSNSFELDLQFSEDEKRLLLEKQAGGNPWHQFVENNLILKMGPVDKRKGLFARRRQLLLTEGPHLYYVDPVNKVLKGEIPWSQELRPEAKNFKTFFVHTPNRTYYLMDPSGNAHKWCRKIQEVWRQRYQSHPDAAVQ
Chain of PDGFRA (P16234 24-1089): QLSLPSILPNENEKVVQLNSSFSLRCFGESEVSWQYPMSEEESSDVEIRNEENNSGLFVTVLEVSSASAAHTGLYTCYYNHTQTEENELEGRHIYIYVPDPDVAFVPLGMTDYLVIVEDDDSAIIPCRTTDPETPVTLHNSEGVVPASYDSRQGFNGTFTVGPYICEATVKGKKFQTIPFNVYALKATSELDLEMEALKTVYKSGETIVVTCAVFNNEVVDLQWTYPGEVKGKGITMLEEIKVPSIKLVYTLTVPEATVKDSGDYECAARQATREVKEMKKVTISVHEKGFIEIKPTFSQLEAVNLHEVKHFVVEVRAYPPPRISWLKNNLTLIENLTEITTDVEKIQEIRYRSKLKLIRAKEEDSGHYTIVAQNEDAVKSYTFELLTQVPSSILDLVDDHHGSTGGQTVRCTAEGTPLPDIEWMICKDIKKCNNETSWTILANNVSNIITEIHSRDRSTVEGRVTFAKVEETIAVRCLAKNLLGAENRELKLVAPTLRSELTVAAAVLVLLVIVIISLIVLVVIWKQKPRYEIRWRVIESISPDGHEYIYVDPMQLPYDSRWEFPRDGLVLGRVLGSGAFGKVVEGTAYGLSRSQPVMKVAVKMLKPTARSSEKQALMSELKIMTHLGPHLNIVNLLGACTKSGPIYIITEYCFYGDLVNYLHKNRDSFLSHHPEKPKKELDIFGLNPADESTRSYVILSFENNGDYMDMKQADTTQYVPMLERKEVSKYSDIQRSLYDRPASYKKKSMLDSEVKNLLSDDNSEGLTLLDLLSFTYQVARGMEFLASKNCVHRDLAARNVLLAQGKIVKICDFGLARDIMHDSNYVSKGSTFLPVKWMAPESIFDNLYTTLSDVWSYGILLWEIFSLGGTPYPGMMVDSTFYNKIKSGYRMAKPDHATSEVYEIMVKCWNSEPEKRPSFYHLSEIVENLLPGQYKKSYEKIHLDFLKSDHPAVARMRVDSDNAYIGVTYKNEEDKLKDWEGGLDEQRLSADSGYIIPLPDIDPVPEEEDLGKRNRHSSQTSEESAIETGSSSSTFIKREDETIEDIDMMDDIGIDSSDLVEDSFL
Chain of VEGFR2 (P35968 20-1356): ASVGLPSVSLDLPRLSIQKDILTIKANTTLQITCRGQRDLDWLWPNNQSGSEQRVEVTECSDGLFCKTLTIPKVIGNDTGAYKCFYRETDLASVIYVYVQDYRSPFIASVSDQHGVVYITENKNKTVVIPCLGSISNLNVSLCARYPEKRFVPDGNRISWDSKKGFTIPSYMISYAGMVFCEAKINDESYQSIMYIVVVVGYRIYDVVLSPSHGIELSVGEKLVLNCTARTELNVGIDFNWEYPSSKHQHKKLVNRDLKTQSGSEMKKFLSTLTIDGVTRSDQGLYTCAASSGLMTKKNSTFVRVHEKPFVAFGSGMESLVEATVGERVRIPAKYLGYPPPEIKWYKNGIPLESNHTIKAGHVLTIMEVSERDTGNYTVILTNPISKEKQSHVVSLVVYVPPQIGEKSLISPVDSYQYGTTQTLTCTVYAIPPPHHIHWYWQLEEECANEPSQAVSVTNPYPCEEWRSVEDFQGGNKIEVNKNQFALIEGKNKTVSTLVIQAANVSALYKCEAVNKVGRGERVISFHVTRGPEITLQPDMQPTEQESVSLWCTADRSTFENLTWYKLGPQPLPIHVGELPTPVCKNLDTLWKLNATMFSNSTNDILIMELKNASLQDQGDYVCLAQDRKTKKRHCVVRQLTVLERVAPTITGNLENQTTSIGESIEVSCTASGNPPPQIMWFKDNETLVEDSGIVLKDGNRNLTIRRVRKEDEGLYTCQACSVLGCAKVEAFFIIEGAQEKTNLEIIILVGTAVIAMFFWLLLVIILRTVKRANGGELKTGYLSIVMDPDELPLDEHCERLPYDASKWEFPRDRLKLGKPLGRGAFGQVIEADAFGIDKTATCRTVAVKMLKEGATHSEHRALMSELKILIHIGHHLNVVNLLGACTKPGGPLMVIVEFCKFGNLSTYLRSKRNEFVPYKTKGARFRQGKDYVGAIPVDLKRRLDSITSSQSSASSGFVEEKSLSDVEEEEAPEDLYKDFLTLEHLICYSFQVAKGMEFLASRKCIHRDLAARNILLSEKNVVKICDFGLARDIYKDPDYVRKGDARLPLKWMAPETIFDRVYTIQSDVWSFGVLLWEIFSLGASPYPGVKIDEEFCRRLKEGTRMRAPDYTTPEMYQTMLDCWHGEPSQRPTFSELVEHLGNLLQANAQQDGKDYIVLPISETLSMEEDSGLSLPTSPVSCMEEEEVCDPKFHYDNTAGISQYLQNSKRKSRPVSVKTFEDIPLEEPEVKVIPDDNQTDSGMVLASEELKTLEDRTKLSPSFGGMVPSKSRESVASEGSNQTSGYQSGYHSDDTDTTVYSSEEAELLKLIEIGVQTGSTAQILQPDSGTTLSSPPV

| IC50 (HCT-116) | IC50 (PDK1) | IC50 in 9 of the 82 cell lines ([1]; 9 cell lines) | IC50 ([1]; 68 of the cell lines, 10 μM down to 3 nM, read-out: IC50 in 68 of the 82 cell lines) | IC50 ([1]; read-out: IC50 in 5 cell lines) | Kinase profiling activity against VEGFR2 (in words) (VEGFR2) | Kinase profiling activity against PDGFRA (in words) (PDGFRA) | IC50 (BT549) | IC50 (MCF-7) | IC50 (H1975) | IC50 (PC-3) | IC50 (LNCap) | IC50 (786-O) | Compound | IC50 (HS578T cell line; [2]) | Potency in cell viability assay, AN3-CA (in words) (AN3-CA cells; FIG. 6) | IC50 (AN3-CA cells; [3]) | IC50 (AN3-CA cells; Homo sapiens, AN3-CA, Table VI panel, mutation PTEN, PIK3R1, read-out: IC50 cell viability, AN3-CA) | IC50 (AN3-CA cells; Homo sapiens, AN3-CA, read-out: IC50 cell viability, AN3-CA cells) | IC50 (HS578T cell line; control (scrambled) treated cells, read-out: IC50 for cell viability, control treated cells) | IC50 (AN3-CA cells; AN3-CA (PTEN and PIK3R1 mutations), listed as Test Compound 2, read-out: Cell Viability IC50 AN3-CA) |
| --- | --- | --- | --- | --- | --- | --- | --- | --- | --- | --- | --- | --- | --- | --- | --- | --- | --- | --- | --- | --- |
| 2.52 µM | 0.143 µM | hundreds of nano-molar range | > 1 µM | < 0.1 µM | relatively potent activity | relatively potent activity | 3.16 µM | 8.79 µM | 9.86 µM | 7.56 µM | 24.8 µM | 6.01 µM | O=C(Nc1ccc2[nH]nc(-c3nc4ccc(N5CCOCC5)cc4[nH]3)c2c1)C1CC1(F)F (centres unmarked) [Compound 1, 2,2-difluoro-N-(3-(5-morpholino-1H-benzo[d]imidazol-2-yl)-1H-indazol-5-yl)cyclopropanecarboxamide] | 1.2 µM | most potent | 0.027 µM | 0.048 µM | 0.027 µM |  |  |
|  | 0.159 µM |  |  |  |  |  |  |  |  |  |  |  | CC1CN(c2ccc3nc(-c4n[nH]c5ccc(NC(=O)C6CC6(F)F)cc45)[nH]c3c2)CCO1 (centres unmarked) [Compound 2, 2,2-difluoro-N-(3-(5-(2-methylmorpholino)-1H-benzo[d]imidazol-2-yl)-1H-indazol-5-yl)cyclopropanecarboxamide] | 0.8 µM |  | < 0.03 µM |  |  | 2.2 µM | 0.023 µM |
